Reference: patent US20090062150A1, “COMPOSITIONS AND METHODS FOR REGULATING INTRAMEMBRANE PROTEASES” (priority 2006, published 2009)

Legend:
[1] = test system: rhomboid protease; settings: qualitative statement; cited from earlier work
[2] = target: T1, truncated GlpG transmembrane core domain (Escherichia coli, UniProt P09391); experiment: In vitro protease activity assay of GlpG core domain; format: biochemical, E. coli; settings: for inhibition of GlpG by other detergents: wide range of concentrations up to several times their CMCs, data not shown
T1 construct: The transmembrane core domain of GlpG (residues 87-276) was purified as described previously; made in house
Method: Structural characterization of E. coli rhomboid protease, GlpG, was carried out using an N-terminally truncated GlpG transmembrane core domain (residues 87-276). In vitro characterization of the enzymatic activity of the truncated GlpG was reconstituted to validate the use of the GlpG core domain for crystallographic studies was carried out using two separate assays. Proteolytic activity of purified truncated GlpG core domain on an artificial protein substrate in detergent micelles was analyzed at 37° C. […] Proteolytic activity of purified truncated GlpG core domain was also compared with full length GlpG using C100-Spitz-Flag as substrate.
Combinatorial library technology provides an efficient way of testing a potentially vast number of different substances for their ability to modulate the activity of a rhomboid protease. In some embodiments, test substances may be screened for their ability to interact with the rhomboid protease in an enzymatic assay. For example, in one such enzymatic assay an artificial protein substrate, such as, for example, a membrane: associated protein, such as, CED-4, or C100-Spitz-Flag may be contacted with a rhomboid protease, such as GlpG. Cleavage products may then be analyzed by, for example, sodium dodecyl-sulfate polyacrylamide gel electrophoresis (SDS-PAGE). A test substance may be added to such an enzymatic, assay as a separate component, and modulation of the enzymatic activity of the rhomboid protease may be apparent by a reduction or enhancement of the amount or type of cleavage product. The modulation of activity may be indicative of binding of the test substance to the rhomboid protease.
The proteolytic activity of GlpG was examined as described by Wu et al.

[3] = target: T1, truncated GlpG transmembrane core domain; settings: qualitative statement, no data shown; cited from earlier work

T1 sequence (P09391 87-276): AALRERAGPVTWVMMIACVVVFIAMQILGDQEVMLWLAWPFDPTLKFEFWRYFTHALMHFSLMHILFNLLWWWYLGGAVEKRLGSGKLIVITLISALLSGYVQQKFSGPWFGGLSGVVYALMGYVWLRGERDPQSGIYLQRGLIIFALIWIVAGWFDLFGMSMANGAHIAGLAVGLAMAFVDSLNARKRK

Compound	inhibition of rhomboid activity [1]	specificity for rhomboid [1]	inhibition of GlpG by other detergents [2]	also measured
Cc1ccc(S(=O)(=O)N[C@@H](Cc2ccccc2)C(=O)CCl)cc1 [TPCK]	inhibit rhomboid activity	lack specificity	–	–
CCCCCCCCCO[C@@H]1O[C@H](CO)[C@@H](O)[C@H](O)[C@H]1O [nonyl glucoside]	–	–	no inhibition	–
CCCCCCCCOCCOCCOCCOCCO [C8E4, tetraethyleneglycol monooctyl ether]	–	–	–	inhibition of enzymatic activity on artificial substrate ([2]; at concentrations above its critical micelle concentration (CMC), artificial substrate, FIG. 4A left panel): inhibit enzymatic activity; inhibition of proteolysis of C100-Spitz-Flag ([2]; substrate C100-Spitz-Flag, FIG. 4A right panel): inhibition is also observed
CCCCCCCCCCCC[N+](C)(C)[O-] [LDAO]	–	–	no inhibition	–
O=c1oc(Cl)c(Cl)c2ccccc12 [DCI, Dichloroisocoumarin]	inhibit rhomboid activity	lack specificity	–	inhibition of GlpG [3]: relatively potent inhibition
